Values of other authors as cited in patent publication US11147268B2, “Food contact surface sanitizing liquid” (THE CLOROX COMPANY, priority 2015, dated 2021).

Row | Compound | Vapor Pressure mmHg @ 20° C. | Vapor Pressure mmHg (@25° C.)
1 | CC(C)O [Isopropyl alcohol] | 33 mmHg | 
2 | CC(CO)CO [2-methyl 1,3 propanediol] |  | 0.021 (@25° C.) mmHg
3 | CCO [Ethanol] | 43 mmHg | 
4 | OCCCO [1,3 propanediol] | 0.8 mmHg | 
5 | CC(O)CO (centres unmarked) [1,2, propylene glycol] | 0.07 mmHg | 
